According to ChEMBL document CHEMBL1268927, “Antitumor activity of 3,4-dihydroquinazoline dihydrochloride in A549 xenograft nude mice” (Bioorg Med Chem Lett, 2010):

What was measured:
SK-BR-3 = experiment: Cytotoxicity against human SKBR3 cells by MTT assay; type: functional, cell-based
MDA-MB-231 = experiment: Cytotoxicity against human MDA-MB-231 cells by MTT assay; type: functional, cell-based
HeLa = experiment: Cytotoxicity against human HeLa cells by MTT assay; type: functional, cell-based
[1] = Cytotoxicity against human A172 cells by MTT assay; type: functional, cell-based, A 172
A549 [2] = experiment: Cytotoxicity against human A549 cells by MTT assay; type: functional, cell-based
SK-OV-3 = experiment: Cytotoxicity against human SKOV3 cells by MTT assay; type: functional, cell-based
LNCaP = experiment: Cytotoxicity against human LNCAP cells by MTT assay; type: functional, cell-based
A549 [3] = experiment: Antitumor activity against human A549 cells xenografted in BALB/c mouse assessed as inhibition of tumor weight at 2 mg/kg, iv administered once per 2 days for 4 weeks measured post last dose; type: functional
A549 [4] = experiment: Antitumor activity against human A549 cells xenografted in iv dosed BALB/c mouse assessed as inhibition of tumor weight administered QD for 28 days measured post last dose; type: functional, organism-based
A549 [5] = experiment: Ratio of compound to doxorubicin activity against human A549 cells xenografted in BALB/c mouse at 2 mg/kg, iv; type: functional
Mus musculus [6] = experiment: Toxicity in ICR mouse assessed as loss of locomotor activity at 45 mg/kg, iv administered as single dose measured up to 10 mins; type: organism-based; parameters: dose 45 mg/kg, route intravenous; conditions: in vivo
Mus musculus [7] = experiment: Toxicity in ICR mouse assessed as occurrence of erosion at 45 mg/kg, iv administered as single dose measured up to 10 mins; type: organism-based; parameters: dose 45 mg/kg, route intravenous; conditions: in vivo
Mus musculus [8] = experiment: Toxicity in ICR mouse assessed as appearance of solid perineal region at 500 mg/kg, po administered as single dose; type: organism-based; parameters: dose 500 mg/kg, route oral; conditions: in vivo
Mus musculus [9] = experiment: Toxicity in ICR mouse assessed as occurrence of inanimation at 34.6 mg/kg, iv administered as single dose; type: organism-based; parameters: dose 34.6 mg/kg, route intravenous; conditions: in vivo
[10] = AUC in Sprague-Dawley rat at 5 mg/kg, iv; type: ADME, organism-based; parameters: dose 5 mg/kg, route intravenous; conditions: plasma
Mus musculus [11] = experiment: Toxicity in BALB/c mouse xenografted with human A549 cells assessed as decrease in body weight at 2 mg/kg, iv administered once per 2 days for 4 weeks measured on day 8; type: organism-based; parameters: dose 2 mg/kg, route intravenous; conditions: in vivo
[12] = Mean residence time in Sprague-Dawley rat at 5 mg/kg, iv; type: ADME, organism-based; parameters: dose 5 mg/kg, route intravenous; conditions: in vivo
[13] = Toxicity in po dosed ICR mouse administered as single dose; type: organism-based; conditions: in vivo
[14] = Mean residence time in Sprague-Dawley rat at 10 mg/kg, iv; type: ADME, organism-based; parameters: dose 10 mg/kg, route intravenous; conditions: in vivo
[15] = Oral bioavailability in Sprague-Dawley rat at 10 mg/kg; type: ADME, organism-based; conditions: in vivo
[16] = Toxicity in ICR mouse assessed as mortality rate at 34.6 mg/kg, iv administered as single dose; type: organism-based; parameters: dose 34.6 mg/kg, route intravenous; conditions: in vivo, read-out: Activity
Mus musculus [17] = experiment: Toxicity in ICR mouse assessed as appearance of solid perineal region at 1000 mg/kg, po administered as single dose; type: organism-based; parameters: dose 1000 mg/kg, route oral; conditions: in vivo
Mus musculus [18] = experiment: Toxicity in ICR mouse assessed as loss of locomotor activity at 34.6 mg/kg, iv administered as single dose; type: organism-based; parameters: dose 34.6 mg/kg, route intravenous; conditions: in vivo
A549 [19] = experiment: Antitumor activity against human A549 cells xenografted in BALB/c mouse assessed as inhibition of tumor weight at 2 mg/kg, iv QD for 28 days measured post last dose; type: functional; conditions: A549, 672 h
[20] = Oral bioavailability in Sprague-Dawley rat at 5 mg/kg; type: ADME, organism-based; conditions: in vivo
A549 [21] = experiment: Antitumor activity against human A549 cells xenografted in BALB/c mouse assessed as inhibition of tumor weight at 1 mg/kg, iv QD for 28 days measured post last dose; type: functional; conditions: A549, 672 h
Mus musculus [22] = experiment: Toxicity in ICR mouse assessed as appearance of clinical signs at 26.6 mg/kg, iv administered as single dose; type: organism-based; parameters: dose 26.6 mg/kg, route intravenous; conditions: in vivo
Rattus norvegicus [23] = experiment: Volume of distribution in Sprague-Dawley rat at 10 mg/kg, iv; type: ADME, organism-based; parameters: dose 10 mg/kg, route intravenous; conditions: in vivo
Mus musculus [24] = experiment: Toxicity in ICR mouse assessed as occurrence of erosion at 34.6 mg/kg, iv administered as single dose; type: organism-based; parameters: dose 34.6 mg/kg, route intravenous; conditions: in vivo
[25] = Toxicity in ICR mouse assessed as mortality rate at 500 mg/kg, po administered as single dose; type: organism-based; parameters: dose 500 mg/kg, route oral; conditions: in vivo, read-out: Activity
Mus musculus [26] = experiment: Toxicity in BALB/c mouse xenografted with human A549 cells assessed as effect on body weight at 1 to 2 mg/kg, iv QD for 28 days measured post last dose; type: organism-based; parameters: dose 1-2 mg/kg, route intravenous; conditions: in vivo, 672 h
Mus musculus [27] = experiment: Toxicity in ICR mouse assessed as occurrence of inanimation at 45 mg/kg, iv administered as single dose measured up to 10 mins; type: organism-based; parameters: dose 45 mg/kg, route intravenous; conditions: in vivo
Rattus norvegicus [28] = experiment: Half life in Sprague-Dawley rat at 10 mg/kg, iv; type: ADME, organism-based; parameters: dose 10 mg/kg, route intravenous; conditions: in vivo
[29] = Cmax in Sprague-Dawley rat at 5 mg/kg, iv; type: ADME, organism-based; parameters: dose 5 mg/kg, route intravenous; conditions: in vivo
Mus musculus [30] = experiment: Toxicity in ICR mouse assessed as occurrence of diarrhea at 100 mg/kg, po administered as single dose; type: organism-based; parameters: dose 100 mg/kg, route oral; conditions: in vivo
[31] = Toxicity in ICR mouse assessed as mortality rate at 250 mg/kg, po administered as single dose; type: organism-based; parameters: dose 250 mg/kg, route oral; conditions: in vivo, read-out: Activity
[32] = Toxicity in ICR mouse assessed as mortality rate at 1000 mg/kg, po administered as single dose; type: organism-based; parameters: dose 1000 mg/kg, route oral; conditions: in vivo, read-out: Activity
Mus musculus [33] = experiment: Toxicity in ICR mouse assessed as occurrence of diarrhea at 500 mg/kg, po administered as single dose; type: organism-based; parameters: dose 500 mg/kg, route oral; conditions: in vivo
Mus musculus [34] = experiment: Toxicity in ICR mouse assessed as occurrence of panting at 34.6 mg/kg, iv administered as single dose; type: organism-based; parameters: dose 34.6 mg/kg, route intravenous; conditions: in vivo
[35] = Cmax in Sprague-Dawley rat at 10 mg/kg, iv; type: ADME, organism-based; parameters: dose 10 mg/kg, route intravenous; conditions: in vivo
Rattus norvegicus [36] = experiment: Volume of distribution in Sprague-Dawley rat at 5 mg/kg, iv; type: ADME, organism-based; parameters: dose 5 mg/kg, route intravenous; conditions: in vivo
Mus musculus [37] = experiment: Toxicity in ICR mouse assessed as occurrence of panting at 45 mg/kg, iv administered as single dose measured up to 10 mins; type: organism-based; parameters: dose 45 mg/kg, route intravenous; conditions: in vivo
[38] = Toxicity in ICR mouse assessed as mortality rate at 26.6 mg/kg, iv administered as single dose; type: organism-based; parameters: dose 26.6 mg/kg, route intravenous; conditions: in vivo, read-out: Activity
[39] = AUC in Sprague-Dawley rat at 10 mg/kg, iv; type: ADME, organism-based; parameters: dose 10 mg/kg, route intravenous; conditions: plasma
[40] = Toxicity in iv dosed ICR mouse administered as single dose; type: organism-based; conditions: in vivo
Rattus norvegicus [41] = experiment: Half life in Sprague-Dawley rat at 5 mg/kg, iv; type: ADME, organism-based; parameters: dose 5 mg/kg, route intravenous; conditions: in vivo
Mus musculus [42] = experiment: Toxicity in ICR mouse assessed as appearance of clinical signs at 250 mg/kg, po administered as single dose; type: organism-based; parameters: dose 250 mg/kg, route oral; conditions: in vivo

## CN(C)CCCCCN(C)C1=Nc2ccccc2C(CC(=O)NCc2ccccc2)N1c1ccc(-c2ccccc2)cc1 (centres undefined) [listing 1 of 2 here]
SK-BR-3; Homo sapiens, SK-BR-3
  IC50: 2.17 µM
MDA-MB-231; Homo sapiens, MDA-MB-231
  IC50: 2.65 µM
HeLa; Homo sapiens, HeLa
  IC50: 4.04 µM
[1]; Homo sapiens, A 172
  IC50: 4.83 µM
A549 [2]; Homo sapiens, A549
  IC50: 5.17 µM
SK-OV-3; Homo sapiens, SK-OV-3
  IC50: 5 µM
LNCaP; Homo sapiens, LNCaP
  IC50: 4.7 µM

## COc1cccc2c1C(=O)c1c(O)c3c(c(O)c1C2=O)C[C@@](O)(C(=O)CO)C[C@@H]3O[C@H]1C[C@H](N)[C@H](O)[C@H](C)O1 [DOXORUBICIN]
A549 [3]
  inhibition in vivo at 2 mg/kg: 30%

## CN(C)CCCCCN(C)C1=Nc2ccccc2C(CC(=O)NCc2ccccc2)N1c1ccc(-c2ccccc2)cc1 (centres undefined) [listing 2 of 2 here]
A549 [4]
  inhibition: Dose-dependent effect

## CN(C)CCCCCN(C)C1=Nc2ccccc2C(CC(=O)NCc2ccccc2)N1c1ccc(-c2ccccc2)cc1.Cl.Cl (centres undefined)
A549 [5]
  Ratio: 1.6
Mus musculus [6]
  Activity: Toxic
SK-BR-3; sk-br-3
  IC50: 1.83 µM
Mus musculus [7]
  Activity: Toxic
Mus musculus [8]
  Activity: Toxic
Mus musculus [9]
  Activity: Toxic
[10]
  AUC: 128 µg·h/mL
Mus musculus [11]
  Activity: Toxic
[12]
  MRT: 5.09 h
[13]
  LD50: 693 mg/kg
MDA-MB-231; mda-mb-231
  IC50: 1.64 µM
[14]
  MRT: 7.19 h
[15]
  bioavailability: 70.1%
[16]
  mortality: 20%
HeLa; hela
  IC50: 3.11 µM
Mus musculus [17]
  Activity: Toxic
[1]; a 172
  IC50: 4.61 µM
Mus musculus [18]
  Activity: Toxic
A549 [2]; a549
  IC50: 5 µM
A549 [19]
  inhibition in vivo at 2 mg/kg: 49%
[20]
  bioavailability: 98.3%
A549 [21]
  inhibition in vivo at 1 mg/kg: 29%
Mus musculus [22]
  Activity: Toxic
Rattus norvegicus [23]
  Vd: 0.61 L/kg
Mus musculus [24]
  Activity: Toxic
[25]
  mortality: 40%
Mus musculus [26]
  Activity: Non-toxic
Mus musculus [27]
  Activity: Toxic
Rattus norvegicus [28]
  t1/2: 19.8715 h
SK-OV-3; sk-ov-3
  IC50: 5.22 µM
[29]
  Cmax: 460 ng/mL
Mus musculus [30]
  Activity: Toxic
[31]
  mortality: 0%
LNCaP; lncap
  IC50: 5.19 µM
[32]
  mortality: 80%
Mus musculus [33]
  Activity: Toxic
Mus musculus [34]
  Activity: Toxic
[35]
  Cmax: 1030 ng/mL
Rattus norvegicus [36]
  Vd: 0.33 L/kg
Mus musculus [37]
  Activity: Toxic
[38]
  mortality: 0%
[39]
  AUC: 279 µg·h/mL
[40]
  LD50: 40 mg/kg
Rattus norvegicus [41]
  t1/2: 8.716 h
Mus musculus [42]
  Activity: Non-toxic
